# Source: PubChem BioAssay AID1963868 (Molecular Pharmacology Branch, DTP, NCI, 2024)
# Test system: KRAS PDC tumor spheroids (HUVEC+MSC), viability
# Test: Anticancer human tumor 254851-301-R-J1-PDC patient-derived colon carcinoma cell line growth inhibition [KRAS2]
# Conditions: for IC50: curve of first compound; for viability, T/C: stronger effect = lower value
# How it was run: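 Combination screen of spheroid viability in tumor-cell co-cultures with endothelial (HUVEC) and mesenchymal stem cell stroma. Each agent was tested in half-log dilutions, topping at clinical Cmax or at 10 microM without a known Cmax.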
# [1] = second compound 0.1 µM, first compound 0.0316 µM
# [2] = second compound 0.1 µM, first compound 0.1 µM
# [3] = second compound 0.1 µM, first compound 0.316 µM
# [4] = second compound 0.1 µM, first compound 1 µM
# [5] = second compound 0.1 µM, first compound 3.16 µM
# [6] = second compound 0.1 µM, first compound 10 µM
# [7] = second compound 0.316 µM, first compound 0.0316 µM
# [8] = second compound 0.316 µM, first compound 0.1 µM
# [9] = second compound 0.316 µM, first compound 0.316 µM
# [10] = second compound 0.316 µM, first compound 1 µM
# [11] = second compound 0.316 µM, first compound 3.16 µM
# [12] = second compound 0.316 µM, first compound 10 µM
# [13] = second compound 1 µM, first compound 0.0316 µM
# [14] = second compound 1 µM, first compound 0.1 µM
# [15] = second compound 1 µM, first compound 0.316 µM
# [16] = second compound 1 µM, first compound 1 µM
# [17] = second compound 1 µM, first compound 3.16 µM
# [18] = second compound 1 µM, first compound 10 µM
# [19] = second compound 3.16 µM, first compound 0.0316 µM
# [20] = second compound 3.16 µM, first compound 0.1 µM
# [21] = second compound 3.16 µM, first compound 0.316 µM
# [22] = second compound 3.16 µM, first compound 1 µM
# [23] = second compound 3.16 µM, first compound 3.16 µM
# [24] = second compound 3.16 µM, first compound 10 µM
# [25] = second compound 10 µM, first compound 0.0316 µM
# [26] = second compound 10 µM, first compound 0.1 µM
# 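Also: spheroids exposed to compounds for seven days before readout.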
# 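For viability, T/C in this document: 100% = DMSO vehicle control luminescence of the spheroids.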
structure (smiles),measurement,setting,value
Cn1nccc1Nc1nccc(-c2cc3c(s2)C(C)(C)N(CCN2CCOCC2)C3=O)n1 + C=CC(=O)N1CCN(c2nc(OCC3CCCN3C)nc3c2CCN(c2cccc4cccc(C)c24)C3)CC1CC#N,IC50,second compound 0.0316 µM,2.32 µM
same,IC50,second compound 0.1 µM,3.14 µM
same,IC50,second compound 0.316 µM,2.54 µM
same,IC50,second compound 1 µM,1.66 µM
same,IC50,second compound 3.16 µM,1.3 µM
same,"viability, T/C","second compound 0.0316 µM, first compound 0.0316 µM",99.1%
same,"viability, T/C","second compound 0.0316 µM, first compound 0.1 µM",112%
same,"viability, T/C","second compound 0.0316 µM, first compound 0.316 µM",89.8%
same,"viability, T/C","second compound 0.0316 µM, first compound 1 µM",82%
same,"viability, T/C","second compound 0.0316 µM, first compound 3.16 µM",38.4%
same,"viability, T/C","second compound 0.0316 µM, first compound 10 µM",4.17%
same,"viability, T/C",[1],89.9%
same,"viability, T/C",[2],89.9%
same,"viability, T/C",[3],95.3%
same,"viability, T/C",[4],94.1%
same,"viability, T/C",[5],49.8%
same,"viability, T/C",[6],3.82%
same,"viability, T/C",[7],112%
same,"viability, T/C",[8],92.3%
same,"viability, T/C",[9],91.2%
same,"viability, T/C",[10],75.9%
same,"viability, T/C",[11],43%
same,"viability, T/C",[12],3.62%
same,"viability, T/C",[13],71.3%
same,"viability, T/C",[14],74.5%
same,"viability, T/C",[15],68.6%
same,"viability, T/C",[16],66.7%
same,"viability, T/C",[17],29.3%
same,"viability, T/C",[18],2.36%
same,"viability, T/C",[19],81.9%
same,"viability, T/C",[20],74.3%
same,"viability, T/C",[21],63%
same,"viability, T/C",[22],62.4%
same,"viability, T/C",[23],11.8%
same,"viability, T/C",[24],0.25%
CC(C)n1nc(-c2ccc3oc(N)nc3c2)c2c(N)ncnc21 + CC1OCC2(CCN(c3cnc(Sc4ccnc(N)c4Cl)c(N)n3)CC2)C1N,IC50,second compound 0.1 µM,0.0175 µM
same,IC50,second compound 0.316 µM,0.0205 µM
same,IC50,second compound 1 µM,0.0186 µM
same,IC50,second compound 3.16 µM,0.0158 µM
same,IC50,second compound 10 µM,0.0113 µM
same,"viability, T/C","second compound 0.1 µM, first compound 0.000316 µM",103%
same,"viability, T/C","second compound 0.1 µM, first compound 0.001 µM",98.2%
same,"viability, T/C","second compound 0.1 µM, first compound 0.00316 µM",89.3%
same,"viability, T/C","second compound 0.1 µM, first compound 0.01 µM",69.8%
same,"viability, T/C",[1],29.4%
same,"viability, T/C",[2],19.9%
same,"viability, T/C","second compound 0.316 µM, first compound 0.000316 µM",101%
same,"viability, T/C","second compound 0.316 µM, first compound 0.001 µM",99.7%
same,"viability, T/C","second compound 0.316 µM, first compound 0.00316 µM",88.8%
same,"viability, T/C","second compound 0.316 µM, first compound 0.01 µM",75.3%
same,"viability, T/C",[7],34.4%
same,"viability, T/C",[8],23.2%
same,"viability, T/C","second compound 1 µM, first compound 0.000316 µM",87.1%
same,"viability, T/C","second compound 1 µM, first compound 0.001 µM",78.5%
same,"viability, T/C","second compound 1 µM, first compound 0.00316 µM",84.5%
same,"viability, T/C","second compound 1 µM, first compound 0.01 µM",64.8%
same,"viability, T/C",[13],36.8%
same,"viability, T/C",[14],19.6%
same,"viability, T/C","second compound 3.16 µM, first compound 0.000316 µM",74.7%
same,"viability, T/C","second compound 3.16 µM, first compound 0.001 µM",72.5%
same,"viability, T/C","second compound 3.16 µM, first compound 0.00316 µM",72.3%
same,"viability, T/C","second compound 3.16 µM, first compound 0.01 µM",63.1%
same,"viability, T/C",[19],30.2%
same,"viability, T/C",[20],18.4%
same,"viability, T/C","second compound 10 µM, first compound 0.000316 µM",65%
same,"viability, T/C","second compound 10 µM, first compound 0.001 µM",71.7%
same,"viability, T/C","second compound 10 µM, first compound 0.00316 µM",66.6%
same,"viability, T/C","second compound 10 µM, first compound 0.01 µM",50.9%
same,"viability, T/C",[25],31.3%
same,"viability, T/C",[26],18.1%
CCNC(=O)CC1N=C(c2ccc(Cl)cc2)c2cc(OC)ccc2-n2c(C)nnc21 (stereo not given) + C=CC(=O)N1CCN(c2nc(=O)n(-c3c(C)ccnc3C(C)C)c3nc(-c4c(O)cccc4F)c(F)cc23)C(C)C1,IC50,second compound 0.1 µM,> 10 µM
same,IC50,second compound 0.316 µM,> 10 µM
same,IC50,second compound 1 µM,> 10 µM
same,IC50,second compound 3.16 µM,> 10 µM
same,IC50,second compound 10 µM,> 10 µM
same,"viability, T/C",[1],107%
same,"viability, T/C",[2],99.6%
same,"viability, T/C",[3],96.8%
same,"viability, T/C",[4],91%
same,"viability, T/C",[5],81%
same,"viability, T/C",[6],77.3%
same,"viability, T/C",[7],95%
same,"viability, T/C",[8],86.4%
same,"viability, T/C",[9],95.2%
same,"viability, T/C",[10],76.2%
same,"viability, T/C",[11],82.2%
same,"viability, T/C",[12],65.1%
same,"viability, T/C",[13],80.3%
same,"viability, T/C",[14],94.8%
same,"viability, T/C",[15],86.3%
same,"viability, T/C",[16],80.7%
same,"viability, T/C",[17],89.3%
same,"viability, T/C",[18],74.2%
same,"viability, T/C",[19],72.3%
same,"viability, T/C",[20],76.1%
same,"viability, T/C",[21],97%
same,"viability, T/C",[22],84.5%
same,"viability, T/C",[23],79.9%
same,"viability, T/C",[24],59.4%
same,"viability, T/C",[25],105%
same,"viability, T/C",[26],96.2%
same,"viability, T/C","second compound 10 µM, first compound 0.316 µM",95.6%
same,"viability, T/C","second compound 10 µM, first compound 1 µM",91.2%
same,"viability, T/C","second compound 10 µM, first compound 3.16 µM",86%
same,"viability, T/C","second compound 10 µM, first compound 10 µM",67.8%
